Assay results taken from patent US20230382920A1, “SHMT Inhibitors” (The Trustees of Princeton University, priority 2020, published 2023).
Where a name gives a salt, the structure may show the parent alone. One block for each molecule: values may come before it.

Key:
[1] = Pharmacokinetics study of KDG-0271 in male CD1 mice (Example 4); format: in vivo; settings: for F: bioavailability vs 1 mg/kg IV; for AUC(0-inf) / AUC(0-t) / Cmax / Tmax / half-life / concentration at 0.25 h / concentration at 0.5 h / concentration at 1 h / concentration at 2 h / concentration at 4 h / concentration at 8 h / MRT inf: mouse, plasma; for MRT inf: read-out: MRTInf_obs
Description: A standard PK study of KDG-0271 was performed in male CD1 mice dosed with a single intravenous, oral or intraperitoneal dose of KDG-0271. The parameters of the PK study are described in Table 26. Dosing solutions were freshly made prior to use, and were in the form of a suspension. […] For IV and IP, after collection, plasma samples from the same time point were pooled, and the pooled samples were analyzed by LC/MS/MS.
Sample preparation and analysis were conducted in accordance with the method described in Example 3.
(§1) BLOQ=Below quantifiable limit of 1 ng/mL. PK parameters were estimated by non-compartmental model using WinNonlin 6.1. The PO bioavailability (F %) was calculated as following:
(§2) AUClast-PO/AUCINF-PO>80%: F=(AUCINF-PO*DoseIV)/(mean AUCINF-IV*DosePO) AUClast-PO/AUCINF-PO≤80% or AUCINF was not available: F=(AUClast-PO*DoseIV)/(mean AUClast-IV*DosePO).
(§3) The IP bioavailability (F %) was calculated as following:
(§4) AUClast-IP/AUCINF-IP>80%: F=(AUCINF-IP*DoseIV)/(mean AUCINF-IV*DoseIP) AUClast-IP/AUCINF-IP≤80% or AUCINF was not available: F=(AUClast-IP*DoseIV)/(mean AUClast-IV*DoseIP).

[2] = Pharmacokinetics study of KDG-0320-0A in male CD1 mice (Example 1); format: in vivo; settings: for F: bioavailability vs 1 mg/kg IV; for MRT inf: read-out: MRTInf_obs
Description: A standard pharmacokinetic (PK) study of KDG-0320-0A was performed in male CD1 mice dosed with a single oral, intravenous or intraperitoneal dose of KDG-0320-0A. The parameters of the PK study are described in Table 2. Dosing solutions were freshly made prior to use. […] For IV, PO and IP, after collection, plasma samples from the same time point were pooled, and the pooled samples were analyzed by LC/MS/MS.
The desired serial concentrations of working solutions were achieved by diluting stock solution of analyte with 50% acetonitrile in water solution. 5 μL of working solutions (2, 4, 10, 20, 100, 200, 1000, 2000 ng/mL) were added to 10 μL of blank CD1 mouse plasma to achieve calibration standards of 1-1000 ng/mL (1, 2, 5, 10, 50, 100, 500, 1000 ng/mL) in a total volume of 15 μL. Four quality control (QC) samples at 2 ng/mL, 5 ng/mL, 50 ng/mL and 800 ng/mL for plasma were prepared independently of those used for the calibration curves. These QC samples were prepared on the day of analysis in the same way as calibration standards.
15 μL standards, 15 μL QC samples and 15 μL unknown samples from the blood sampling (10 μL plasma with 5 μL blank solution) were added to 200 μL of acetonitrile containing IS mixture for precipitating protein. Then, the samples were vortexed for 30 seconds. After centrifugation at 4 degrees Celsius, 4000 rpm for 15 minutes, the supernatant was diluted three times with water. 15 μL of diluted supernatant was injected into the LC/MS/MS system for quantitative analysis.
as §1, §2, §3, §4

[3] = 30 mg/kg IP, read-out: Concentration IP_Mean
[4] = 50 mg/kg PO, read-out: Concentration PO_Mean
[5] = single dose 1 mg/kg IV, 50 mg/kg PO or 30 mg/kg IP, entire experiment
[6] = mouse, plasma, 1 mg/kg IV, read-out: Concentration IV_Mean
[7] = mouse, plasma, 30 mg/kg IP, read-out: Concentration IP_Mean
[8] = mouse, plasma, 50 mg/kg PO, read-out: Concentration PO_Mean

AUC_%Extrap_obs ([1]; 30 mg/kg IP): 2.65%
AUClast/D ([1]; 30 mg/kg IP): 174 kg·ng·h/mL/mg
F ([1]; 30 mg/kg IP): 179%
AUC_%Extrap_obs ([1]; 50 mg/kg PO): 0.172%
AUClast/D ([1]; 50 mg/kg PO): 38.1 kg·ng·h/mL/mg
F ([1]; 50 mg/kg PO): 38.1%
AUC(0-inf) ([1]; 30 mg/kg IP): 5360 ng·h/mL
AUC(0-t) ([1]; 30 mg/kg IP): 5220 ng·h/mL
Cmax ([1]; 30 mg/kg IP): 3170 ng/mL
Tmax ([1]; 30 mg/kg IP): 0.25 h
half-life ([1]; 30 mg/kg IP): 1.6 h
concentration at 0.25 h [1, 3]: 3170 ng/mL
concentration at 0.5 h [1, 3]: 2420 ng/mL
concentration at 1 h [1, 3]: 1580 ng/mL
concentration at 2 h [1, 3]: 841 ng/mL
concentration at 4 h [1, 3]: 317 ng/mL
concentration at 8 h [1, 3]: 61.4 ng/mL
MRT inf ([1]; 30 mg/kg IP): 1.98 h
AUC(0-inf) ([1]; 50 mg/kg PO): 1910 ng·h/mL
AUC(0-t) ([1]; 50 mg/kg PO): 1900 ng·h/mL
Cmax ([1]; 50 mg/kg PO): 872 ng/mL
Tmax ([1]; 50 mg/kg PO): 0.5 h
half-life ([1]; 50 mg/kg PO): 0.851 h
concentration at 0.25 h [1, 4]: 750 ng/mL
concentration at 0.5 h [1, 4]: 872 ng/mL
concentration at 1 h [1, 4]: 857 ng/mL
concentration at 2 h [1, 4]: 350 ng/mL
concentration at 4 h [1, 4]: 72 ng/mL
concentration at 8 h [1, 4]: 2.67 ng/mL
MRT inf ([1]; 50 mg/kg PO): 1.49 h
SMILES: Cc1n[nH]c2c1C(c1cc(C#CC3CN(C(=O)OC(C)(C)C)C3)cc(CO)c1)(C(C)C)C(C#N)=C(N)O2 (stereo not drawn) [KDG-0271, tert-butyl 3-[2-(3-[6-amino-5-cyano-4-isopropyl-3-methyl-1H-pyrano[2,3-c]pyrazol-4-yl]-5-(hydroxymethyl)phenyl)ethynyl]azetidine-1-carboxylate]
clinical symptoms [1, 5]: No abnormal clinical symptoms were observed

AUC_%Extrap_obs ([2]; 1 mg/kg IV): 2.88%
AUClast/D ([2]; 1 mg/kg IV): 155 kg·ng·h/mL/mg
Cl_obs ([2]; 1 mg/kg IV): 104 mL/min/kg
Vss_obs ([2]; 1 mg/kg IV): 3.96 L/kg
AUC_%Extrap_obs ([2]; 30 mg/kg IP): 1.41%
AUClast/D ([2]; 30 mg/kg IP): 258 kg·ng·h/mL/mg
F ([2]; 30 mg/kg IP): 164%
AUC_%Extrap_obs ([2]; 50 mg/kg PO): 1.77%
AUClast/D ([2]; 50 mg/kg PO): 32.5 kg·ng·h/mL/mg
F ([2]; 50 mg/kg PO): 20.8%
AUC(0-inf) ([2]; mouse, plasma, 1 mg/kg IV): 160 ng·h/mL
AUC(0-t) ([2]; mouse, plasma, 1 mg/kg IV): 155 ng·h/mL
C0 ([2]; mouse, plasma, 1 mg/kg IV): 575 ng/mL
half-life ([2]; mouse, plasma, 1 mg/kg IV): 1.04 h
concentration at 0.083 h ([2]; mouse, plasma, 1 mg/kg IV, 0.083 h, read-out: Concentration IV_Mean): 363 ng/mL
concentration at 0.25 h [2, 6]: 144 ng/mL
concentration at 0.5 h [2, 6]: 60.2 ng/mL
concentration at 1 h [2, 6]: 25.7 ng/mL
concentration at 2 h [2, 6]: 7.16 ng/mL
concentration at 4 h [2, 6]: 3.07 ng/mL
MRT inf ([2]; mouse, plasma, 1 mg/kg IV): 0.632 h
AUC(0-inf) ([2]; mouse, plasma, 30 mg/kg IP): 7840 ng·h/mL
AUC(0-t) ([2]; mouse, plasma, 30 mg/kg IP): 7730 ng·h/mL
Cmax ([2]; mouse, plasma, 30 mg/kg IP): 7460 ng/mL
Tmax ([2]; mouse, plasma, 30 mg/kg IP): 0.25 h
half-life ([2]; mouse, plasma, 30 mg/kg IP): 1.66 h
concentration at 0.25 h [2, 7]: 7460 ng/mL
concentration at 0.5 h [2, 7]: 5240 ng/mL
concentration at 1 h [2, 7]: 3060 ng/mL
concentration at 2 h [2, 7]: 589 ng/mL
concentration at 4 h [2, 7]: 211 ng/mL
concentration at 8 h ([2]; mouse, plasma, 30 mg/kg IP, 8 h, read-out: Concentration IP_Mean): 46.2 ng/mL
MRT inf ([2]; mouse, plasma, 30 mg/kg IP): 1.27 h
AUC(0-inf) ([2]; mouse, plasma, 50 mg/kg PO): 1660 ng·h/mL
AUC(0-t) ([2]; mouse, plasma, 50 mg/kg PO): 1630 ng·h/mL
Cmax ([2]; mouse, plasma, 50 mg/kg PO): 605 ng/mL
Tmax ([2]; mouse, plasma, 50 mg/kg PO): 1 h
half-life ([2]; mouse, plasma, 50 mg/kg PO): 1.28 h
concentration at 0.25 h [2, 8]: 117 ng/mL
concentration at 0.5 h [2, 8]: 315 ng/mL
concentration at 1 h [2, 8]: 605 ng/mL
concentration at 2 h [2, 8]: 411 ng/mL
concentration at 4 h [2, 8]: 126 ng/mL
concentration at 8 h ([2]; mouse, plasma, 50 mg/kg PO, 8 h, read-out: Concentration PO_Mean): 15.8 ng/mL
MRT inf ([2]; mouse, plasma, 50 mg/kg PO): 2.3 h
Concentration IV_Mean ([2]; plasma, 1 mg/kg IV, 8 h): BLOQ
SMILES: Cc1n[nH]c2c1C(c1cc(C#C[C@H]3CC[C@H](NC(=O)OC(C)(C)C)CC3)cc(CO)c1)(C(C)C)C(C#N)=C(N)O2 (stereo partly drawn) [KDG-0320, tert-butyl N-[(1r,4r)-4-[2-(3-[6-amino-5-cyano-4-isopropyl-3-methyl-1H-pyrano[2,3-c]pyrazol-4-yl]-5-(hydroxymethyl)phenyl)ethynyl]cyclohexyl]carbamate hydrochloride]
clinical symptoms [2, 5]: No abnormal clinical symptoms were observed
